Measured values: patent US20260355328A1, “A complex comprising a cargo and a targeting moiety binding intelectin-1” (Stichting Radboud universitair medisch centrum, priority 2022, published 2026)
Residues, ends and D or L forms follow the SMILES beside them. *: point of attachment. DOTA = O=C(O)CN1CCN(CC(=O)O)CCN(CC(=O)*)CCN(CC(=O)O)CC1

Experiments:
[1] = system: mGEnC treated with TNFα; assay: Uptake by mGEnC after activation with TNFα; format: cell-based; conditions: 10 ng/ml mouse TNFα 16 hours
Protocol: (§1) Conditionally immortalized mouse glomerular endothelial cells (mGEnC) were cultured as previously described (Rops et al. Kidney Int. 2004; 66 (6): 2193-201). HeLa cells were employed as a frequently used model cell line and were cultured in DMEM/F12 medium containing 10% fetal calf serum (FCS). For studying uptake, cells were incubated in their respective medium with 10% FCS containing fluorescein-labelled peptides at the indicated concentrations for 20 minutes at 37 °C. In some cases, cells were activated for 16 hours with 10 ng/ml mouse TNFα (Sigma), or co-incubated with Alexa Fluor 633-labeled transferrin (Invitrogen Molecular Probes). Subsequently, cells were washed with PBS and analysed using confocal laser-scanning microscopy on a TCS SP5 confocal microscope (Leica Microsystems), or detached by trypsin/EDTA and analysed on a FACSCalibur Flow cytometer (BD Biosciences) by measuring 20,000 cells.
(§2) Conditionally immortalized mouse glomerular endothelial cells (mGEnC) were cultured as previously described (Rops et al. Kidney Int. 2004; 66 (6): 2193-201). Cells were incubated in their respective medium with 10% FCS containing fluorescein-labelled peptides at 5 μM for 20 minutes at 37 °C. In some cases, cells were activated for 16 hours with 10 ng/ml mouse TNFα (Sigma), or co-incubated with 100 μg/ml Alexa Fluor 633-labeled transferrin (Invitrogen Molecular Probes). Pre-treatment with ITLN-1 or control siPool siRNA (siTools Biotech) was performed according to the manufacturer's protocol. Subsequently, cells were detached with trypsin/EDTA and analysed by flow cytometry on a FACSCalibur Flow cytometer (BD Biosciences). For immunostaining, cells or 5-μm cryosections of mouse kidney were fixed for 10 minutes with 4% paraformaldehyde, and in the indicated cases permeabilized with 0.3% Triton X-100 in PBS. Subsequently, cells and cryosections were stained for 1 hour with anti-intelectin-1 (R&D Systems) or anti-LRP-1 (Abcam) antibodies, and after washing incubated for 1 hour with the appropriate Alexa Fluor-labelled secondary antibody (Invitrogen Molecular Probes). Cells and cryosections were analyzed by confocal laser-Scanning microscopy was performed using a TCS SP5 confocal microscope (Leica Microsystems).

[2] = biological target: T1, ITLN-1 (Mus musculus, UniProt O88310); assay: Uptake by mGEnC after downregulation of ITLN-1 with siRNA; format: cell-based; conditions: peptides at 5 μM, FIG. 2E
T1 construct: ITLN-1 siRNA versus control siRNA
T1 sequence (O88310 19-298): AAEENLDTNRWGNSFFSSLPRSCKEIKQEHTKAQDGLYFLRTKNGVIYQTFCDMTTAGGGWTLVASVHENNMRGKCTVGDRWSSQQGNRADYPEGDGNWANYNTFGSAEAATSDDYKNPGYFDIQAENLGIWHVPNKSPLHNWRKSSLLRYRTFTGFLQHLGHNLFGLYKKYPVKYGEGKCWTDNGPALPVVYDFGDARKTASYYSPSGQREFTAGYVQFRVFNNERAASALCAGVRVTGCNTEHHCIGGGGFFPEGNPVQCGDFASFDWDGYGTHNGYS
Protocol: as §2

[3] = system: HUVEC; assay: Uptake in multiple cell lines (Table 2): HUVEC; format: cell-based; conditions: fluorescein-labeled peptide, confocal microscopy, HUVEC (human)
[4] = system: Podocytes; assay: Uptake in multiple cell lines (Table 2): Podocytes; format: cell-based; conditions: fluorescein-labeled peptide, confocal microscopy, Podocytes (mouse)
Protocol: as §1
as §2, with “Subsequently, cells and cryosections were stained for 1 hour with anti-intelectin-1 (R&D Systems) or anti-LRP-1 (Abcam) antibodies, and after washing incubated for 1 hour with the appropriate Alexa Fluor-labelled secondary antibody (Invitrogen Molecular Probes).” left out

[5] = system: hGEnC; assay: Uptake in multiple cell lines (Table 2): hGEnC; format: cell-based; conditions: fluorescein-labeled peptide, confocal microscopy, hGEnC (human)
[6] = system: mouse glomerular endothelial cells (mGEnC); assay: Uptake of fluorescein-labelled peptides by mGEnC (flow cytometry); format: cell-based; conditions: different concentrations, 20 minutes at 37 °C, FIG. 1A
Protocol: as §1

[7] = system: HeLa cells; assay: Uptake of fluorescein-labelled peptides by HeLa cells (flow cytometry); format: cell-based, human; conditions: FIG. 1B
Protocol: as §1

[8] = system: EOMA; assay: Uptake in multiple cell lines (Table 2): EOMA; format: cell-based; conditions: fluorescein-labeled peptide, confocal microscopy, EOMA (mouse)
[9] = system: HeLa; assay: Uptake in multiple cell lines (Table 2): HeLa; format: cell-based; conditions: fluorescein-labeled peptide, confocal microscopy, HeLa (human)
Protocol: as §1
as §2, with “Subsequently, cells and cryosections were stained for 1 hour with anti-intelectin-1 (R&D Systems) or anti-LRP-1 (Abcam) antibodies, and after washing incubated for 1 hour with the appropriate Alexa Fluor-labelled secondary antibody (Invitrogen Molecular Probes).” left out

[10] = system: mGEnC; assay: Uptake in multiple cell lines (Table 2): mGEnC; format: cell-based; conditions: fluorescein-labeled peptide, confocal microscopy, mGEnC (mouse)
Protocol: as §1
as §2, with “Subsequently, cells and cryosections were stained for 1 hour with anti-intelectin-1 (R&D Systems) or anti-LRP-1 (Abcam) antibodies, and after washing incubated for 1 hour with the appropriate Alexa Fluor-labelled secondary antibody (Invitrogen Molecular Probes).” left out

[11] = system: heparan sulphate on mGEnC; assay: Peptide uptake by mGEnC after removal of heparan sulphate (heparinases); format: cell-based, mouse; conditions: 5 μM, FIG. 1D
Protocol: (D) Digestion of heparan sulphate from the cell surface has a limited effect on the uptake of lactoferrin-derived peptides (5 μM). Percentage of uptake for heparan sulphate-cleaved compared to undigested cells is shown.
as §1
In order to further substantiate that uptake of hLF occurred by a mechanism different of the one typically observed for CPPs, we addressed the role of heparan sulphate proteoglycans (HSPGs).

[12] = Biodistribution of full-length lactoferrin, lactoferricin and hLF-6 in LPS-challenged mice (IVIS); format: in vivo; conditions: fluorescent label, i.v., 2 h
Protocol: Lactoferrin and lactoferricin are cloned in an expression plasmid containing the C-terminal Sortase-sequence protein-LPETG-HHHHHH. LPETGHHHHHH is SEQ ID NO: 98. Next, the protein is expressed overnight in E. coli and purified from sonicated bacterial cell lysates by Ni-NTA beads using 400 mM imidazole to elute the proteins. After overnight dialysis, full-length lactoferrin and hLF-6 are labelled by means of a Sortase exchange reaction on the C-terminus with a fluorescent dye (Alexa647 or Cy5.5) for 2 h at 4 °C using a fluorescently labelled donor peptide (formula:biotin-GSSG-LPETG-label or biotin-GSSG-LPETG-PEG40k-label) as substrate GSSGLPETG is SEQ ID NO: 99. Excess donor peptide is removed by means of streptavidin binding of the biotin tag on the N-terminus of the donor peptide. Next, the purified labelled protein/peptide is injected into LPS-challenged mice via intravenous injection in the tail vein. Mice are sacrificed after 2 h, and organs harvested for imaging by IVIS. Biodistribution is quantified for each organ, and relative distribution is shown.

[13] = Biodistribution of 111In-DOTA-labelled hLF variants after intravenous injection; format: in vivo, C57BI/6 mice; conditions: i.v., 4 hours
Protocol: Female and male 10-12-weeks-old C57BI/6 mice (Charles River) were injected via the tail vein with 50 μl of 200 μM 111 In-DOTA-labelled hLF peptides. […] Organs were collected 4 hours after injection, and radioactivity was measured in a gamma-counter. The percentage injected dose per gram of tissue (% ID/gram) was determined for each tissue and ratios between organs were calculated.

[14] = Biodistribution of Cy5.5-hLF in LPS-induced inflammation mouse model; format: in vivo, C57BI/6 mice; conditions: for organ with highest signal: LPS-treated and non-treated mice; for localization in the glomeruli: kidney of LPS-treated mice
Protocol: At the start, 8- to 10-week-old C57BI/6 mice (Charles River) received an intraperitoneal injection with either 100 μl of 2 mg/kg LPS in 5% glucose solution, or only 5% glucose solution. After 24 hours, mice were injected with 50 μl of 200 μM Cy5.5-labelled peptide. Assuming a blood volume of 1.2 ml this would theoretically result in a concentration of ~8.5 μM in the circulation. After 4 hours, organs were perfused with phosphate buffer, followed by 4% PFA. Organs were removed and peptide distribution was analysed using the In Vivo Imaging System (IVIS; Perkin Elmer). Organs were then fixed by overnight incubation in 4% PFA, followed by overnight incubation in 30% sucrose. Subsequently, organs were frozen for analysis by confocal laser-Scanning microscopy using a TCS SP5 confocal microscope (Leica Microsystems). Glomerular and tubular regions were selected in microscopical pictures from which the mean fluorescence intensity was determined by ImageJ software.

Molecule	uptake after ITLN-1 siRNA compared to control siRNA [2]	effect of TNFα treatment on uptake [1]	Uptake (Table 2) [3]	Uptake (Table 2) [4]	Uptake (Table 2) [5]	uptake in HeLa cells [7]	Uptake (Table 2) [8]	Uptake (Table 2) [9]	Uptake (Table 2) [10]	also measured
RKVRGPPVSCIKRDS [hLF-6]	–	–	–	–	–	–	–	–	–	accumulation in the kidney compared to lactoferrin and lactoferricin [12]: significantly greater accumulation in the kidney
CC(C)[C@H](NC(=O)[C@H](CCCCN)NC(=O)[C@H](CCCNC(=N)N)NC(=O)CN1CCN(CC(=O)O)CCN(CC(=O)O)CCN(CC(=O)O)CC1)C(=O)N[C@@H](CCCNC(=N)N)C(=O)NCC(=O)N1CCC[C@H]1C(=O)N1CCC[C@H]1C(N)=O [^111In-DOTA-hLF-7, ^111In-DOTA-RKVRGPP-NH2, metal not drawn] ({DOTA}-RKVRGPP-NH2)	–	–	–	–	–	–	–	–	–	kidney/liver ratio (in words) [13]: still increased; localization to the kidney ([13]; FIG. 5): reduced distribution to the kidney; localization to the liver and spleen ([13]; FIG. 5): reduced distribution to the liver and spleen
Cy5.5-KCFQWQRNMRKVRGPPVSCIKR-NH2 ({Cy5.5}-KCFQWQRNMRKVRGPPVSCIKR-NH2; cysteine pairing not given here) [Cy5.5-hLF]	–	–	–	–	–	–	–	–	–	organ with highest signal ([14]; IVIS): predominant distribution in kidney and liver; organ with highest signal ([14]; IVIS, listed as Cy5.5-labeled hLF): highest signal for the peptide was present in the kidneys, followed by the liver; biodistribution to the kidney with LPS-induced inflammation ([14]; IVIS, i.v., 4 hours, LPS-treated mice, FIG. 4A): increase biodistribution to the kidney; urinary excretion (urine colour) ([14]; all injected mice): Urine was coloured by excreted Cy5.5-labelled peptide in all mice; fluorescence in liver, lung and spleen ([14]; confocal microscopy, FIG. 4B): much lower fluorescence; localization to the tubules, LPS-treated versus untreated ([14]; confocal microscopy, FIG. 4B): similar; localization in the glomeruli ([14]; confocal microscopy, FIG. 4B): in glomeruli only in LPS-treated mice; localization in the glomeruli ([14]; confocal microscopy, FIG. 4B, listed as Cy5.5-labeled hLF): clearly pronounced; detection in the liver ([14]; histology of cryosections): singular cells appeared weakly positive; detection in the spleen ([14]; histology of cryosections): could hardly be detected

More lines, main results first:

uptake after ITLN-1 siRNA compared to control siRNA [2]	Molecule	effect of TNFα treatment on uptake [1]	Uptake (Table 2) [3]	Uptake (Table 2) [4]	Uptake (Table 2) [5]	uptake in HeLa cells [7]	Uptake (Table 2) [8]	Uptake (Table 2) [9]	Uptake (Table 2) [10]	also measured
not affected	transferrin: Alexa Fluor 633-labeled transferrin, marker for clathrin-mediated endocytosis [reference compound]	not significantly affected	–	–	–	–	–	–	–	–
reduced uptake	KCLRWQNEMRKVGGPPLSCIKR [mLF, mouse variant of hLF]	increased uptake	High	High	High	only a minimal uptake and not	High	Low	High	uptake in mGEnC [6]: uptake occurred similarly to hLF; decrease in uptake after removal of heparan sulphate [11]: ~ 20%
not affected	CC[C@H](C)[C@H](NC(=O)[C@H](CCCCN)NC(=O)[C@@H](NC(=O)[C@H](CCC(N)=O)NC(=O)[C@@H](N)CCCNC(=N)N)[C@@H](C)CC)C(=O)N[C@@H](Cc1c[nH]c2ccccc12)C(=O)N[C@@H](Cc1ccccc1)C(=O)N[C@@H](CCC(N)=O)C(=O)N[C@@H](CC(N)=O)C(=O)N[C@@H](CCCNC(=N)N)C(=O)N[C@@H](CCCNC(=N)N)C(=O)N[C@@H](CCSC)C(=O)N[C@@H](CCCCN)C(=O)N[C@@H](Cc1c[nH]c2ccccc12)C(=O)N[C@@H](CCCCN)C(=O)N[C@@H](CCCCN)C(N)=O [penetratin, reference compound]	–	High	High	Low	show uptake	Low	High	Low	uptake after TNFα treatment by confocal microscopy [1]: barely detectable; increase of uptake after TNFα treatment ([1]; 5 μM, FIG. 1E): 50-100%
